In patent EP1170007A1, “REMEDIES” (Takara Shuzo Co, Ltd., priority 1999, dated 2000):
Several values for one entry are separate records, joined by “and”; a condition that tells them apart may be missing. Identical values can stand only once.

Columns and labels:
[1] = tested on: mouse; test: Single oral dose toxicity in mouse; format: in vivo; settings: mouse, in vivo, po, 100 mg/kg
[2] = tested on: HGF production, MRC-5 cells; test: Enhancement of HGF production in MRC-5 cells (ELISA); format: cell-based, Human; settings: for Increase in HGF production: 24 hours, negative control defined as 100% (7.2 ng/ml)
Experimental: MRC-5 cells (CCL171, Dainippon Pharmaceutical) were suspended in a DME medium (Bio Whittaker) containing 10% fetal calf serum at a concentration of 1 x 10^5 cells/ml. 500 µl of the suspension was placed into a 48-well cell culture plate. After culturing at 37°C in the presence of 5% CO2 for 24 hours, the medium was exchanged for a DME medium containing 1% fetal calf serum. Then, one of samples was added thereto. The plate was incubated for additional 24 hours. The medium was then recovered, and the amount of HGF in the culture medium was measured using Quantikine Human Hepatocyte Growth Factor (HGF) ELISA Kit (Funakoshi). The amount of HGF produced was expressed defining a negative control as 100%. In this case, the amount of HGF produced for the negative control was 7.2 ng/ml. Cyclopentenone (at a final concentration of 20, 40 or 160 µM), GM (at a final concentration of 20, 40, 80 or 160 µM), or dipropionylcyclopentenone (at a final concentration of 32 or 64 µM) was added as a sample. As a negative control, distilled water was added in the same volume as the sample. As a positive control, prostaglandin E1 was added at a final concentration of 0.01, 0.1, 1 or 10 µM.

[3] = tested on: nerve growth factor production by L-M cells; test: Enhancement of nerve growth factor production in L-M cells (enzyme immunoassay); format: cell-based, Rat
Experimental: Rat fibroblast L-M cells (ATCC CCL-1.2) were suspended in a M199 medium (Gibco) containing 0.5% Bacto Peptone (Gibco) at a concentration of 1.0 x 10^5 cells/ml. 1 ml of the suspension was inoculated into each well of a 24-well plate. The cells were cultured aseptically. After culturing for 2 days, the medium was removed and substituted with a M199 medium containing 0.5% bovine serum albumin (Sigma). Then, cyclopentenone (final concentration of 1 to 25 µM), 4HCP (Aldrich) (final concentration of 12.5µM) or dipropionylcyclopentenone (final concentration of 3.1 to 9.4 µM) was added thereto. […]
After completion of the incubation, the concentration of nerve growth factor in the culture was measured by enzyme immunoassay (NGF Emax Immuno Assay System: Promega). […]

[4] = tested on: interleukin-12; test: Intraperitoneal interleukin-12 in mice inoculated with Ehrlich cancer cells (ELISA); format: in vivo, ddY mouse; settings: for Amount of intraperitoneal interleukin-12: 10 mg/kg intraperitoneally 1 day after inoculation, individual mice
Experimental: ddY mouse (female, 5 weeks old, weighing about 25 g) purchased from Japan SLC was used for experiments after preliminary breeding for 1 week. 1 x 10^6 Ehrlich cancer cells were intraperitoneally inoculated into the mouse. 10 mg/kg of cyclopentenone was intraperitoneally administered 1 day after the inoculation. The mouse was sacrificed by decapitating and exsanguinating 8 or 12 days after the inoculation with cancer cells. 2 ml, which is the same volume as that of ascites retained in the control mouse, of PBS (-) (Nissui Pharmaceutical) containing 1% bovine serum albumin (Sigma) was intraperitoneally injected into the mouse, which was recovered after extensive massage. For a control group, ascites was directly recovered. The recovered ascites and peritoneal lavage fluid were centrifuged at 2000 rpm for 5 minutes to recover supernatants. The supernatants were used to quantify the amounts of interleukin-12 using an ELISA kit for mouse interleukin-12 measurement (Endogen).

SMILES: O=C1C=CC(O)C1O (stereo not shown) [cyclopentenone, 4,5-dihydroxy-2-cyclopenten-1-one]
- death after single oral dose [1]: no example of death was observed
- Increase in HGF production ([2]; 20 µM): 144%
- Increase in HGF production ([2]; 40 µM): 218%
- Increase in HGF production ([2]; 160 µM): 238%
- amount of HGF produced as compared with the negative control (result in words) ([2]; negative control: distilled water): significantly increased
- Nerve growth factor concentration ([3]; 1 µM, 24 hours, 0 µM control 0.570): 0.700 ng/mL
- Nerve growth factor concentration ([3]; 2.5 µM, 24 hours, 0 µM control 0.570): 0.740 ng/mL
- Nerve growth factor concentration ([3]; 5 µM, 24 hours, 0 µM control 0.570): 0.870 ng/mL
- Nerve growth factor concentration ([3]; 7.5 µM, 24 hours, 0 µM control 0.570): 0.900 ng/mL
- Nerve growth factor concentration ([3]; 10 µM, 24 hours, 0 µM control 0.570): 1.080 ng/mL
- Nerve growth factor concentration ([3]; 12.5 µM, 24 hours, 0 µM control 0.570): 1.340 ng/mL
- Nerve growth factor concentration ([3]; 15 µM, 24 hours, 0 µM control 0.570): 1.550 ng/mL
- Nerve growth factor concentration ([3]; 17.5 µM, 24 hours, 0 µM control 0.570): 2.150 ng/mL
- Nerve growth factor concentration ([3]; 20 µM, 24 hours, 0 µM control 0.570): 1.900 ng/mL
- Nerve growth factor concentration ([3]; 25 µM, 24 hours, 0 µM control 0.570): 1.540 ng/mL
- production of nerve growth factor by L-M cells (result in words) ([3]; 24 hours incubation): enhanced the production of nerve growth factor by L-M cells in a concentration-dependent manner
- Nerve growth factor concentration ([3]; time course: 15 µM, cultivation time 0 hour, control 0.000): 0.000 ng/mL
- Nerve growth factor concentration ([3]; time course: 15 µM, cultivation time 3 hour, control 0.028): 0.050 ng/mL
- Nerve growth factor concentration ([3]; time course: 15 µM, cultivation time 6 hour, control 0.233): 0.359 ng/mL
- Nerve growth factor concentration ([3]; time course: 15 µM, cultivation time 12 hour, control 0.575): 0.686 ng/mL
- Nerve growth factor concentration ([3]; time course: 15 µM, cultivation time 24 hour, control 0.658): 1.186 ng/mL
- Nerve growth factor concentration ([3]; time course: 15 µM, cultivation time 48 hour, control 0.736): 1.236 ng/mL
- Nerve growth factor concentration ([3]; time course: 17.5 µM, cultivation time 0 hour, control 0.000): 0.000 ng/mL
- Nerve growth factor concentration ([3]; time course: 17.5 µM, cultivation time 3 hour, control 0.028): 0.054 ng/mL
- Nerve growth factor concentration ([3]; time course: 17.5 µM, cultivation time 6 hour, control 0.233): 0.205 ng/mL
- Nerve growth factor concentration ([3]; time course: 17.5 µM, cultivation time 12 hour, control 0.575): 0.635 ng/mL
- Nerve growth factor concentration ([3]; time course: 17.5 µM, cultivation time 24 hour, control 0.658): 1.535 ng/mL
- Nerve growth factor concentration ([3]; time course: 17.5 µM, cultivation time 48 hour, control 0.736): 1.492 ng/mL
- Nerve growth factor concentration ([3]; time course: 20 µM, cultivation time 0 hour, control 0.000): 0.000 ng/mL
- Nerve growth factor concentration ([3]; time course: 20 µM, cultivation time 3 hour, control 0.028): 0.082 ng/mL
- Nerve growth factor concentration ([3]; time course: 20 µM, cultivation time 6 hour, control 0.233): 0.179 ng/mL
- Nerve growth factor concentration ([3]; time course: 20 µM, cultivation time 12 hour, control 0.575): 0.581 ng/mL
- Nerve growth factor concentration ([3]; time course: 20 µM, cultivation time 24 hour, control 0.658): 1.681 ng/mL
- Nerve growth factor concentration ([3]; time course: 20 µM, cultivation time 48 hour, control 0.736): 1.874 ng/mL
- Amount of intraperitoneal interleukin-12 ([4]; After 8 Days, control group ND): 11.0 pg/mL and 100.0 pg/mL and 25.0 pg/mL
- Amount of intraperitoneal interleukin-12 ([4]; After 12 Days, control group all dead): 43.0 pg/mL and 97.2 pg/mL and 66.4 pg/mL
- activity of enhancing interleukin-12 production (result in words) ([4]; Ehrlich cancer cell inoculated mice): an activity of enhancing interleukin-12 production by cyclopentenone was observed for each mouse
